# According to US20020198254A1, “Polyamide analogs” (priority 2000, published 2002):
# Like-named read-outs stand apart in the source and are kept apart here.
# Columns and labels:
# Type in all cases: cell-based
# [1] = tested on: Streptococcus pneumoniae; experiment: MIC assay, S. pneumoniae; conditions: CAMHB + 5% LHB, 24 h
# Method: (§1) These assays are adapted from NCCLS protocols M7-A4 and M27-A (NCCLS vol 17:9 and vol 17:2) as modified by Sandven, S. Clin. Micro. (1999) 37:12, p.3856-3859. MIC values for Aspergillus fumigatus were determined using NCCLS protocol M38-P.
# (§2) All compounds were dissolved in 100% DMSO to a stock concentration of 10 mM and use fresh or stored at −80° C. Stock compounds were kept frozen until needed and used freshly with no more then one freeze-thaw cycle. When used for test purposes, compounds were diluted in the appropriate media depending on the organism being tested.
# (§3) For yeast and aspergillus species, seven 1:2 serial dilutions of compound in appropriate media buffered with MOPS at pH 7.0 were prepared such that the final starting test compound concentrations were 50.0 uM for yeast and 50 uM aspergillus species. For bacteria, dilutions were made in growth media used for the particular bacteria being tested.
# (§4) Inoculums are made in the same manner as yeast except all dilutions are made in normal saline, with a final dilution of 1:200 and an inoculum of 10 μL. VRE are vancomycin resistant enterococci, BM4147 and UCD-3 represent two different sources of VRE. MRSA are […] resistant Staphylococcus Aureus.
# [2] = tested on: VRE-UCD3 (vancomycin resistant enterococci); experiment: MIC assay, VRE strain UCD-3; conditions: for MIC: Enterococcus, VRE
# Method: as §1, §2, §3, §4
# [3] = tested on: VRE-BM4147 (vancomycin resistant enterococci); experiment: MIC assay, VRE strain BM4147; conditions: for MIC: Enterococcus, VRE
# Method: as §1, §2, §3, §4
# [4] = tested on: VRE-CSUC4 (vancomycin resistant enterococci); experiment: MIC assay, VRE strain CSUC-4; conditions: for MIC: Enterococcus, VRE
# Method: as §1, §2, §3, §4
# [5] = tested on: Staphylococcus aureus; experiment: MIC assay, S. aureus; conditions: CAMHB, 16 h
# Method: as §1, §2, §3, §4
# [6] = tested on: Moraxella catarrhalis; experiment: MIC assay, M. catarrhalis; conditions: BHI, 16 h
# Method: as §1, §2, §3, §4
# [7] = tested on: Haemophilus influenzae; experiment: MIC assay, H. influenzae; conditions: HTM, 24 h
# Method: as §1, §2, §3, §4
# [8] = tested on: Candida albicans; experiment: MIC assay, yeast C. albicans; conditions: RPMI, 48 h, Alamar Blue
# [9] = tested on: VRE-UL17 (vancomycin resistant enterococci); experiment: MIC assay, VRE strain UL-17; conditions: for MIC: Enterococcus, VRE
# Method: as §1, §2, §3, §4
# [10] = tested on: Pseudomonas aeruginosa; experiment: MIC assay, P. aeruginosa; conditions: CAMHB, 16 h
# Method: as §1, §2, §3, §4
# [11] = tested on: Bacillus cereus; experiment: MIC assay, B. cereus; conditions: CAMHB, 16 h
# Method: as §1, §2, §3, §4
MIC Assay Other Strains: S. pneumoniae [1] [µM],MIC Assay VRE Strains: UCD-3 van25 ([2]; 25 μg/mL Vancomycin - 24 h) [µM],MIC Assay VRE Strains: UCD-3 van0 ([2]; No vancomycin - 16 h) [µM],MIC Assay VRE Strains: BM4147 van25 ([3]; 25 μg/mL Vancomycin - 24 h) [µM],MIC Assay VRE Strains: BM4147 van0 ([3]; No vancomycin - 16 h) [µM],MIC Assay VRE Strains: CSUC-4 van25 ([4]; 25 μg/mL Vancomycin - 24 h) [µM],MIC Assay VRE Strains: CSUC-4 van0 ([4]; No vancomycin - 16 h) [µM],MIC Assay Other Strains: S. aureus [5] [µM],MIC Assay Other Strains: M. catarrhalis [6] [µM],MIC Assay Other Strains: H influenzae [7] [µM],MIC Assay C. Albicans [8] [µM],MIC Assay VRE Strains: UL-17 van25 ([9]; 25 μg/mL Vancomycin - 24 h) [µM],MIC Assay VRE Strains: UL-17 van0 ([9]; No vancomycin - 16 h) [µM],MIC Assay Other Strains: P. aeruginosa [10] [µM],MIC Assay Other Strains: B. cereus [11] [µM],SMILES,other results
>45.5,>45.5,>45.5,>45.5,>45.5,>45.5,>45.5,>45.5,>45.5,>45.5,>44.4,>45.5,>45.5,>45.5,>45.5,"Cn1cc(NC(=O)c2cc(NC(=O)CN)cn2C)cc1C(=O)NCCNC(=O)c1cc(NC(=O)c2cc(NC(=O)CN)cn2C)cn1C [Compound 10, bis-1,2-{4-[(NH2CH2CONH)-1-methyl-1H-pyrrol-2-yl-carbonylamino]-1-methyl-1H-pyrrol-2-ylcarbonylamino}ethane]",
>45.5,>45.5,>45.5,>45.5,>45.5,>45.5,>45.5,>45.5,>45.5,>45.5,>44.4,>45.5,>45.5,>45.5,>45.5,Cn1cc(NC(=O)CN)cc1C(=O)Nc1cc(C(=O)NC2CCC(CC3CCC(NC(=O)c4cc(NC(=O)c5cc(NC(=O)CN)cn5C)cn4C)CC3)CC2)n(C)c1 (centres unmarked) [Compound 21],
>45.5,>45.5,,>45.5,,>45.5,,>45.5,>45.5,>45.5,>44.4,>45.5,,>45.5,>45.5,"Cn1cc(NC(=O)c2cc(NC(=O)c3cc(NC(=O)CN)cn3C)cn2C)cc1C(=O)NCCCN(CCCN)CCCNC(=O)c1cc(NC(=O)c2cc(NC(=O)c3cc(NC(=O)CN)cn3C)cn2C)cn1C [Compound 66, N,N-bis-{4-{4-[(NH2CH2CONH)-1-methyl-1H-pyrrol-2-yl-carbonylamino]-1-methyl-1H-pyrrol-2-ylcarbonylamino}-1-methyl-1H-pyrrol-2-yl-carbonylaminopropyl}-N-(3-aminoethylpropyl)amine]",
2.8,11.4,5.7,22.7,22.7,22.7,22.7,22.7,1.4,>45.5,>44.4,22.7,11.4,>45.5,11.4,"Cn1cc(NC(=O)c2cc(NC(=O)CN)cn2C)cc1C(=O)NCCCN(CCCNC(=O)c1cc(NC(=O)c2cc(NC(=O)CN)cn2C)cn1C)CCCNC(=O)c1cc(NC(=O)c2cc(NC(=O)CN)cn2C)cn1C [Compound 74, tris-{4-[(NH2CH2CONH)-1-methyl-1H-pyrrol-2-yl-carbonylamino]-1-methyl-1H-pyrrol-2-yl-carbonylaminopropyl}amine]",
,,,,,,,,,,,,,,,Cn1cc(NC(=O)c2cc(NC(=O)CN)cn2C)cc1C(=O)NCCCNCCCNC(=O)c1cc(NC(=O)c2cc(NC(=O)CN)cn2C)cn1C [Compound 113],"MIC ([1]; Streptococcus pneumoniae, read-out: MIC Assay Other Strains: S. pneumoniae): 11.4 µM; MIC ([2]; 25 μg/mL Vancomycin - 24 h, read-out: MIC Assay VRE Strains: UCD-3 van25): 11.4 µM; MIC ([2]; No vancomycin - 16 h, read-out: MIC Assay VRE Strains: UCD-3 van0): 22.7 µM; MIC ([3]; 25 μg/mL Vancomycin - 24 h, read-out: MIC Assay VRE Strains: BM4147 van25): 22.7 µM; MIC ([3]; No vancomycin - 16 h, read-out: MIC Assay VRE Strains: BM4147 van0): 22.7 µM; MIC ([4]; 25 μg/mL Vancomycin - 24 h, read-out: MIC Assay VRE Strains: CSUC-4 van25): 45.5 µM; MIC ([4]; No vancomycin - 16 h, read-out: MIC Assay VRE Strains: CSUC-4 van0): 22.7 µM; MIC ([5]; Staphylococcus aureus, read-out: MIC Assay Other Strains: S. aureus): > 45.5 µM; MIC ([6]; Moraxella catarrhalis, read-out: MIC Assay Other Strains: M. catarrhalis): 5.7 µM; MIC ([7]; Haemophilus influenzae, read-out: MIC Assay Other Strains: H influenzae): > 45.5 µM; MIC ([8]; Candida albicans): > 44.4 µM; MIC ([9]; 25 μg/mL Vancomycin - 24 h, read-out: MIC Assay VRE Strains: UL-17 van25): 22.7 µM; MIC ([9]; No vancomycin - 16 h, read-out: MIC Assay VRE Strains: UL-17 van0): > 45.5 µM; MIC ([10]; Pseudomonas aeruginosa, read-out: MIC Assay Other Strains: P. aeruginosa): > 45.5 µM; MIC ([11]; Bacillus cereus, read-out: MIC Assay Other Strains: B. cereus): 11.4 µM"

SMILES,MIC Assay Other Strains: S. pneumoniae [1] [µM],MIC Assay VRE Strains: UCD-3 van25 ([2]; 25 μg/mL Vancomycin - 24 h) [µM],MIC Assay VRE Strains: UCD-3 van0 ([2]; No vancomycin - 16 h) [µM],MIC Assay VRE Strains: BM4147 van25 ([3]; 25 μg/mL Vancomycin - 24 h) [µM],MIC Assay VRE Strains: BM4147 van0 ([3]; No vancomycin - 16 h) [µM],MIC Assay VRE Strains: CSUC-4 van25 ([4]; 25 μg/mL Vancomycin - 24 h) [µM],MIC Assay VRE Strains: CSUC-4 van0 ([4]; No vancomycin - 16 h) [µM],MIC Assay Other Strains: S. aureus [5] [µM],MIC Assay Other Strains: M. catarrhalis [6] [µM],MIC Assay Other Strains: H influenzae [7] [µM],MIC Assay C. Albicans [8] [µM],MIC Assay VRE Strains: UL-17 van25 ([9]; 25 μg/mL Vancomycin - 24 h) [µM],MIC Assay VRE Strains: UL-17 van0 ([9]; No vancomycin - 16 h) [µM],MIC Assay Other Strains: P. aeruginosa [10] [µM],MIC Assay Other Strains: B. cereus [11] [µM],other results
Cn1cc(NC(=O)c2cc(NC(=O)CN)cn2C)cc1C(=O)NCCCN(CCCNC(=O)c1cc(NC(=O)c2cc(NC(=O)CN)cn2C)cn1C)C(=O)OCc1ccccc1 [Compound 42],1.4,45.5,45.5,>45.5,>45.5,22.7,22.7,>45.5,11.4,>45.5,>44.4,45.5,22.7,>45.5,11.4,
